# Laboratory results from patent US20210236580A1, “Methods and Compositions for Mitigating Symptoms of Acute Respiratory Distress Syndrome” (Sytheon Ltd, priority 2020, published 2021).
# Legend:
# [1] = system: IL-6; test: IL-6 in LPS-exposed 3D ciliated airway tissue, sandwich ELISA; type: cell-based, human; settings: 1 μg/ml LPS, 48 hours, 100 μg/ml
# Method: Further dilutions were made in sterile distilled water (dH2O). […] After three hours of incubation with test materials, cells were exposed to endotoxin—1 μg/ml LPS (lipopolysaccharides from Escherichia coli O113:H10, Associates of Cape Cod, East Falmouth, Mass.) and the incubation continued for an additional 48 hours.
# The tissue cultures were then evaluated for IL-6 which was quantified by Sandwich Elisa. All colorimetric measurements were performed using Molecular Devices microplate reader MAX190 and SoftMax3.1.2PRO software. Statistical significance was assessed with paired Student test. Deviations of ≥20% as compared to water control with p values below 0.05 were considered statistically significant.
# [2] = system: IL-6; test: IL-6 secretion in LPS-induced human bronchial epithelial cells (HBEpC), ELISA; type: cell-based; settings: 48 hrs, 20 μM
# Source text: (§1) HBEpC provide an excellent model for all aspects of respiratory epithelial function and diseases, particularly those related to airway viral/bacterial infections, including tissue repair mechanisms, signaling changes and potential treatments relevant to lung injuries, mechanical and oxidative stress, inflammation, etc., including that arising from or associated with pulmonary diseases and smoking. In this study, the inflammatory cytokines IL-6 and IL-8 were induced through pretreatment of the HBEpC with lipopolysaccharide (Cat #L2630, Sigma, Saint Louis, Mo.). After 3 hours of treatment the test and control materials were added to the cultures which were then incubated at […] for 48 hrs. Thereafter the IL-8 and IL-6 levels of the test cultures were measured by ELISA.
# (§2) Each experimental condition and control were assayed at least in six replicates and statistical significance assessed with paired Student test. In conducting the assay, total insoluble proteins were quantified to determine the effect of the test materials on cell proliferation according to the method described by Voigt (Voigt, W. Sulforhodamine B assay and chemosensitivity. Methods Mol Med. 2005; 110:39-48).
# [3] = system: interferon gamma; test: IFN-γ in medium of LPS-exposed 3D ciliated airway tissues, sandwich ELISA; type: cell-based, human; settings: second value column of Table 6, 100 μg/ml
# Method: (§6) The respective test materials were stored at room temperature and samples were solubilized in sterile water (LPS, TC, EMB) or DMSO (DEX) at 20 mg/ml, afterward all further dilutions were made in sterile distilled water. All test materials except LPS were assayed at 100 μg ml (LPS was added topically at 1 μg/ml on Day 2). Furthermore, TC and EMB were tested at 50 μg/ml and in two combinations: 50 μg/ml:50 μg/ml and 25 μg/ml:25 μg/ml. Samples were added to the feeder chamber medium contacting the basal side of the tissues on Day 1, then also topically on Day 2, together with LPS. All experimental conditions were tested in triplicates.
# (§7) Twenty-four hours after pre-incubation with the test substances, the tissue cultures were exposed to 1 μg/ml endotoxin LPS and the incubation was continued for 48 additional hours. Following the incubation, the experiment tissue culture-conditioned medium was stored at −20° C. until further processing. Subsequently, IFN-α and IFN-γ were quantified in the tissue culture-conditioned medium by sandwich ELISA.
# [4] = system: IL-8; test: IL-8 secretion in LPS-induced human bronchial epithelial cells (HBEpC), ELISA; type: cell-based; settings: 48 hrs
# Source text: as §1, §2
# [5] = system: interferon alpha; test: IFN-α in medium of LPS-exposed 3D ciliated airway tissues, sandwich ELISA; type: cell-based, human; settings: first value column of Table 6, 100 μg/ml
# Method: as §6, §7
# [6] = system: IL-8; test: IL-8 release by urban dust-stimulated human keratinocytes (ELISA); type: cell-based; settings: keratinocytes + 100 ug/ml urban dust, 24 hours; 100 μM (39 μg/ml)
# Method: (§3) Human Keratinocyte Cell Culture: Human adult epidermal keratinocytes were grown using EpiLife Media (60 μM calcium) supplemented with 0.2% v/v bovine pituitary extract, 1 μg/ml recombinant human insulin-like growth factor-I, 0.18 µg/ml hydrocortisone, 5 μg/ml bovine transferrin, 0.2 ng/ml human epidermal growth factor. The cells were cultured at 37 C and 5% CO2. When a sufficient number of cells had been grown, they were seeded into 24-well plates and grown until confluent. Once confluent the cells were cultured overnight in hydrocortisone free EpiLife Media.
# (§4) Preparation of Urban Dust & treatment: Urban dust was obtained from Sigma Chemicals (Standard Reference Material 1649b) and prepared at 10 mg/ml in hydrocortisone free EpiLife media. The urban dust solution was then sonicated for 10 minutes on ice. The test material was prepared in hydrocortisone free media supplemented with 100 ug/ml urban dust. […] Finally, one set of cells was not exposed to urban dust and was used to establish a baseline for each cytokine. […]
# (§5) A series of standards was prepared and 100 μl of each of these standards was dispensed into two wells (duplicates) in the ELISA well plate. […] Once a sufficient level of color development had occurred, 50 μl of stop solution […]) was added to each well and the plate was read at 460 nm.
# [7] = system: IL-6; test: IL-6 release by urban dust-stimulated human keratinocytes (ELISA); type: cell-based; settings: keratinocytes + 100 ug/ml urban dust, 24 hours; 100 μM (39 μg/ml)
# Method: as §3, §4, §5
# [8] = molecular target: T1, IL-6R (Homo sapiens, UniProt P08887); settings: Covid-19 patients, after treatment; preliminary findings; cited from earlier work
# T1 construct: host or cells: endogenous receptor in Covid-19 patients (in vivo)
# T1 sequence (P08887 20-468): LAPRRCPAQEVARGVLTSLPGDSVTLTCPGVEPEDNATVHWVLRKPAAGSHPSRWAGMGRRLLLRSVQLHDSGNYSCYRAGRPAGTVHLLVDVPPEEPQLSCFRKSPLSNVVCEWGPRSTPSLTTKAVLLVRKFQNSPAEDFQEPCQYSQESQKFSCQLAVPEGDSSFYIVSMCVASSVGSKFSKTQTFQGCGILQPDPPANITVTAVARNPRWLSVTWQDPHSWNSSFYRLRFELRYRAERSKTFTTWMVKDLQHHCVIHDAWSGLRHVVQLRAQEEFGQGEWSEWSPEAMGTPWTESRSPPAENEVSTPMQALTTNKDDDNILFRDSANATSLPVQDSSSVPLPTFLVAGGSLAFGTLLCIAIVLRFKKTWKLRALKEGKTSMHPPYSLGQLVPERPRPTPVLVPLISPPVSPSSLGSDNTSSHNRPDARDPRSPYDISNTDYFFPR
Compound,IL-6 (% control) [1] [% control],IL-6 (% control) [2] [% control],Interferon alpha [3] [pg/mL],IL-8 (% control) ([4]; 20 μM),IL-8 (% control) ([4]; 40 μM),Interferon alpha [5] [pg/mL],IL-8 [6] [pg/mL],IL-6 [7] [pg/mL],effect on fevers [8],patients experiencing a reduced need for supplemental oxygen [8] [%]
C[C@@H]1C[C@H]2[C@@H]3CCC4=CC(=O)C=C[C@]4(C)[C@@]3(F)[C@@H](O)C[C@]2(C)[C@@]1(O)C(=O)CO [Dexamethasone],123,77,20,98,91,6,86.9 ± 24.5,61.0 ± 13.9,–,–
Actemra: humanized anti-IL-6R monoclonal antibody,–,–,–,–,–,–,–,–,rapidly reduced fevers,75
